# Experimental data published in patent US12064426B2, “Selective inhibitors of ROCK1 and ROCK2 protein kinases and uses thereof” (GENOSCO Inc., priority 2021, dated 2024).
# Columns and labels:
# [1] = molecular target: T1, Recombinant ROCK1 (amino acids 1-477) (Homo sapiens, UniProt Q13464); test: ROCK inhibition assay, LANCE Ultra TR-FRET kinase assay (ROCK1); type: biochemical; conditions: 1 μM ATP, 50 nM ULight-CREBtide substrate
# T1 construct: Recombinant ROCK1 (amino acids 1-477); by word order, ROCK1 from Carna Biosciences
# Outline: (§1)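 Reaction buffer 50 mM HEPES pH 7.5, 10 mM MgCl2, 1 mM EGTA, 2 mM DTT; kinase, ULight-CREBtide (50 nM) and ATP (ROCK1 1 μM, ROCK2 4 μM) react 1 h at room temperature. Phospho-Ser133 detected by europium antibody after 10 mM EDTA stop, TR-FRET ex 320 nm; IC50 calculated.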
# [2] = molecular target: T2, Recombinant ROCK2 (amino acids 5-554) (Homo sapiens, UniProt O75116); test: ROCK inhibition assay, LANCE Ultra TR-FRET kinase assay (ROCK2); type: biochemical; conditions: 4 μM ATP, 50 nM ULight-CREBtide substrate
# T2 construct: ROCK2 (amino acids 5-554); by word order, ROCK2 from SignalChem
# Outline: as §1
# T1 sequence (Q13464 1-477): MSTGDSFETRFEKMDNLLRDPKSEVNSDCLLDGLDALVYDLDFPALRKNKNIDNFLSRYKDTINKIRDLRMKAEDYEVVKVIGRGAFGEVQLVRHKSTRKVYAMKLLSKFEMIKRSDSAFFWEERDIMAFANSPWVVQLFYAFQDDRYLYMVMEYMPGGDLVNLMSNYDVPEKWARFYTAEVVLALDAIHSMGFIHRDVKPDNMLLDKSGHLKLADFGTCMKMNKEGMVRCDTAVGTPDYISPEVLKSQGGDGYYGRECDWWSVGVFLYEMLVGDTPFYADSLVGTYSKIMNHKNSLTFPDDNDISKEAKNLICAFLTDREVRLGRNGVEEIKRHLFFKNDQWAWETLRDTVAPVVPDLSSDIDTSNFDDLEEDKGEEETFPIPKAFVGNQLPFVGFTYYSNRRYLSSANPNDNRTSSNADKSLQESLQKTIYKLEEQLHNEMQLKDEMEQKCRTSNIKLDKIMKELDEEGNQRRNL
# T2 sequence (O75116 5-554): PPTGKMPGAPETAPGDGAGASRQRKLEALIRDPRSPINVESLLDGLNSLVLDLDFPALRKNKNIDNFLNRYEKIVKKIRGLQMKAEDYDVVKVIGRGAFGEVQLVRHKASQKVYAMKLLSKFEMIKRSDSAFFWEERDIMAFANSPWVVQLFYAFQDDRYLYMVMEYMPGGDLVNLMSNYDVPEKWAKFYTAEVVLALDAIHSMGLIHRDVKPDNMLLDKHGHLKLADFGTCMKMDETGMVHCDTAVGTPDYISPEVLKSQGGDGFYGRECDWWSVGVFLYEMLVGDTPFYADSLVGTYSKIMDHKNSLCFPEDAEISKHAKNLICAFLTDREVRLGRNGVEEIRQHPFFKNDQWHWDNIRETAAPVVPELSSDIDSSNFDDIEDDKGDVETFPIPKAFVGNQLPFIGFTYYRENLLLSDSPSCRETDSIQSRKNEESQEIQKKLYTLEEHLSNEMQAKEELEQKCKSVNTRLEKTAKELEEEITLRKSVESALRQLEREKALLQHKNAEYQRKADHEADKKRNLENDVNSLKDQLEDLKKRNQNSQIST
IC50 [1] [µM],IC50 [2] [µM],SMILES
0.011 to 0.1,< 0.01,O=C(NCC1CCOCC1)c1cc(F)cc(Cn2ccc3cc(-c4c[nH]nc4C(F)F)ncc3c2=O)c1 [Compound 276]
0.011 to 0.1,< 0.01,[2H]C([2H])([2H])NC(=O)c1cccc(Cn2ccc3cc(-c4cn[nH]c4C(F)(F)F)ccc3c2=O)c1 [Compound 278]
0.011 to 0.1,< 0.01,CNC(=O)c1cccc(C(C)n2ccc3cc(-c4cn[nH]c4C(F)(F)F)ccc3c2=O)c1 (stereo not shown) [Compound 279]
0.011 to 0.1,< 0.01,[2H]C([2H])([2H])NC(=O)c1cc(F)cc(Cn2ccc3cc(-c4cn[nH]c4C(F)(F)F)ccc3c2=O)c1 [Compound 282]
0.011 to 0.1,< 0.01,CNC(=O)c1cc(F)cc(C(C)n2ccc3cc(-c4cn[nH]c4C(F)(F)F)ccc3c2=O)c1 (stereo not shown) [Compound 283]
0.101 to 0.5,0.01 to 0.1,CNC(=O)c1cc(Cn2ccc3cc(-c4cn[nH]c4C(F)(F)F)ccc3c2=O)ccc1F [Compound 284]
0.101 to 0.5,0.01 to 0.1,CNC(=O)c1cc(Cl)cc(Cn2ccc3cc(-c4cn[nH]c4C(F)(F)F)ccc3c2=O)c1 [Compound 285]
0.011 to 0.1,< 0.01,CNC(=O)c1cccc(Cn2ccc3cc(-c4cn[nH]c4C(F)F)ccc3c2=O)c1 [Compound 286]
0.011 to 0.1,< 0.01,CNC(=O)c1cccc(C(C)n2ccc3cc(-c4cn[nH]c4C(F)F)ccc3c2=O)c1 (stereo not shown) [Compound 287]
0.011 to 0.1,< 0.01,[2H]C([2H])([2H])NC(=O)c1cccc(C(C)n2ccc3cc(-c4cn[nH]c4C(F)F)ccc3c2=O)c1 (stereo not shown) [Compound 288]
0.011 to 0.1,< 0.01,CNC(=O)c1cc(F)cc(Cn2ccc3cc(-c4cn[nH]c4C(F)F)ccc3c2=O)c1 [Compound 289]
0.011 to 0.1,< 0.01,CNC(=O)c1cccc(Cn2ccc3cc(-c4cn[nH]c4Cl)ccc3c2=O)c1 [Compound 290]
0.011 to 0.1,< 0.01,[2H]C([2H])([2H])NC(=O)c1cccc(Cn2ccc3cc(-c4cn[nH]c4Cl)ccc3c2=O)c1 [Compound 291]
0.011 to 0.1,< 0.01,CNC(=O)c1cccc(C(C)n2ccc3cc(-c4cn[nH]c4Cl)ccc3c2=O)c1 (stereo not shown) [Compound 292]
0.011 to 0.1,< 0.01,CNC(=O)c1cc(F)cc(Cn2ccc3cc(-c4cn[nH]c4Cl)ccc3c2=O)c1 [Compound 293]
0.011 to 0.1,< 0.01,CNC(=O)c1cc(F)cc(C(C)n2ccc3cc(-c4cn[nH]c4Cl)ccc3c2=O)c1 (stereo not shown) [Compound 294]
0.011 to 0.1,< 0.01,[2H]C([2H])([2H])NC(=O)c1cccc(Cn2ccc3cc(-c4cn[nH]c4F)ccc3c2=O)c1 [Compound 296]
0.011 to 0.1,< 0.01,CNC(=O)c1cccc(Cn2ccc3cc(-c4cn[nH]c4F)ccc3c2=O)c1 [Compound 297]
0.011 to 0.1,< 0.01,CNC(=O)c1cc(F)cc(C(C)n2ccc3cc(-c4cn[nH]c4F)ccc3c2=O)c1 (stereo not shown) [Compound 298]
> 0.501,> 0.5,CNC(=O)c1cccc(Cn2ccc3cc(-c4cnn(C)c4)ccc3c2=O)c1 [Compound 299]
> 0.501,> 0.5,CNC(=O)c1cccc(Cn2ccc3cc(-c4cnoc4)ccc3c2=O)c1 [Compound 300]

IC50 [1] [µM],IC50 [2] [µM],SMILES
> 0.501,> 0.5,CNC(=O)c1cccc(Cn2ccc3cc(-c4cnoc4C)ccc3c2=O)c1 [Compound 301]
> 0.501,> 0.5,CNC(=O)c1cccc(Cn2ccc3cc(-c4ccoc4)ccc3c2=O)c1 [Compound 302]
> 0.501,> 0.5,CNC(=O)c1cccc(Cn2ccc3cc(-c4ccoc4C)ccc3c2=O)c1 [Compound 303]
> 0.501,> 0.5,CNC(=O)c1cccc(Cn2ccc3cc(C4=CCOC4)ccc3c2=O)c1 [Compound 304]
0.101 to 0.5,0.1 to 0.5,CNC(=O)c1cccc(Cn2ccc3cc(-c4cc[nH]c4)ccc3c2=O)c1 [Compound 305]
0.101 to 0.5,0.1 to 0.5,CNC(=O)c1cccc(Cn2ccc3cc(-c4cc[nH]c4C)ccc3c2=O)c1 [Compound 306]
0.011 to 0.1,< 0.01,[2H]C([2H])([2H])NC(=O)c1cccc(Cn2ccc3cc(-c4conc4C)ccc3c2=O)c1 [Compound 307]
< 0.01,< 0.01,CNC(=O)c1cccc(Cn2ccc3cc(-c4cn[nH]c4)ccc3c2=O)c1 [Compound 308]
0.011 to 0.1,< 0.01,CNC(=O)c1cccc(C(C)n2ccc3cc(-c4conc4C)ccc3c2=O)c1 (stereo not shown) [Compound 309]
0.011 to 0.1,< 0.01,CNC(=O)c1cccc(Cn2cc(Cl)c3cc(-c4conc4C)ccc3c2=O)c1 [Compound 310]
> 0.501,0.1 to 0.5,CNC(=O)c1cccc(Cn2ccc3cc(-c4conc4C)ccc3c2=O)n1 [Compound 311]
0.101 to 0.5,0.01 to 0.1,CNC(=O)c1cncc(Cn2ccc3cc(-c4conc4C)ccc3c2=O)c1 [Compound 312]
> 0.501,0.1 to 0.5,CNC(=O)c1cc(Cn2ccc3cc(-c4conc4C)ccc3c2=O)ccn1 [Compound 313]
0.101 to 0.5,0.01 to 0.1,CNC(=O)c1cccc(Cn2ccc3cc(-c4conc4C)ccc3c2=O)c1F [Compound 314]
0.011 to 0.1,< 0.01,CNC(=O)c1cc(F)cc(C(C)n2ccc3cc(-c4conc4C)ccc3c2=O)c1 (stereo not shown) [Compound 316]
0.101 to 0.5,0.01 to 0.1,CNC(=O)c1cc(Cn2ccc3cc(-c4conc4C)ccc3c2=O)ccc1F [Compound 317]
0.011 to 0.1,< 0.01,CNC(=O)c1cc(F)cc(Cn2cc(Cl)c3cc(-c4conc4C)ccc3c2=O)c1 [Compound 318]
0.101 to 0.5,0.01 to 0.1,CNC(=O)c1cc(Cl)cc(Cn2ccc3cc(-c4conc4C)ccc3c2=O)c1 [Compound 319]
0.101 to 0.5,0.01 to 0.1,[2H]C([2H])([2H])NC(=O)c1cccc(Cn2ccc3cc(-c4ccnn4C)ccc3c2=O)c1 [Compound 321]
0.101 to 0.5,0.01 to 0.1,CNC(=O)c1cccc(C(C)n2ccc3cc(-c4ccnn4C)ccc3c2=O)c1 (stereo not shown) [Compound 322]
0.101 to 0.5,0.1 to 0.5,CNC(=O)c1cc(Cl)cc(Cn2ccc3cc(-c4ccnn4C)ccc3c2=O)c1 [Compound 324]

IC50 [1] [µM],IC50 [2] [µM],SMILES
0.101 to 0.5,0.01 to 0.1,CNC(=O)c1cccc(Cn2ccc3cc(-c4ccncc4)ccc3c2=O)c1 [Compound 325]
> 0.501,> 0.5,CNC(=O)c1cccc(Cn2ccc3cc(-c4cnnn4C)ccc3c2=O)c1 [Compound 327]
0.101 to 0.5,0.01 to 0.1,"CNC(=O)c1cccc(Cn2ccc3cc(N4CCOCC4)ccc3c2=O)c1 [Compound 328, N-methyl-3-((6-morpholino-1-oxoisoquinolin-2(1H)-yl)methyl)benzamide]"
0.101 to 0.5,0.01 to 0.1,CNC(=O)c1cc(F)cc(Cn2ccc3cc(N4CCOCC4)ccc3c2=O)c1 [Compound 329]
> 0.501,> 0.5,CNC(=O)c1cccc(Cn2ccc3cc(N4CC5CC(C4)O5)ccc3c2=O)c1 [Compound 330]
> 0.501,0.1 to 0.5,CNC(=O)c1cccc(Cn2ccc3cc(N4CCO[C@@H](C)C4)ccc3c2=O)c1 [Compound 331]
> 0.501,0.1 to 0.5,"CC(=O)Nc1cccc(Cn2ccc3cc(-c4ccoc4C)ccc3c2=O)c1 [Compound 332, N-(3-((6-(2-methylfuran-3-yl)-1-oxoisoquinolin-2(1H)-yl)methyl)phenyl)acetamide]"
> 0.501,0.1 to 0.5,CC(=O)Nc1cc(F)cc(Cn2ccc3cc(-c4ccoc4C)ccc3c2=O)c1 [Compound 333]
0.101 to 0.5,0.01 to 0.1,CC(=O)Nc1cccc(Cn2ccc3cc(-c4cnoc4C)ccc3c2=O)c1 [Compound 334]
0.101 to 0.5,0.01 to 0.1,CC(=O)Nc1cc(Cn2ccc3cc(-c4cnoc4C)ccc3c2=O)ccc1F [Compound 335]
0.101 to 0.5,0.01 to 0.1,CC(=O)Nc1cccc(Cn2ccc3cc(-c4c[nH]nc4C)ccc3c2=O)c1 [Compound 336]
0.101 to 0.5,0.01 to 0.1,CC(=O)Nc1cccc(Cn2ccc3cc(-c4c[nH]nc4C(F)(F)F)ccc3c2=O)c1 [Compound 337]
0.011 to 0.1,0.01 to 0.1,CC(C)C(=O)Nc1cccc(Cn2ccc3cc(-c4c[nH]nc4C(F)(F)F)ccc3c2=O)c1 [Compound 338]
0.101 to 0.5,0.01 to 0.1,O=C(Nc1cccc(Cn2ccc3cc(-c4c[nH]nc4C(F)(F)F)ccc3c2=O)c1)C1CCOCC1 [Compound 339]
0.011 to 0.1,< 0.01,O=C(CCc1ccccn1)Nc1cccc(Cn2ccc3cc(-c4c[nH]nc4C(F)(F)F)ccc3c2=O)c1 [Compound 340]
0.101 to 0.5,0.01 to 0.1,CC(=O)Nc1cccc(Cn2ccc3cc(-c4c[nH]nc4C(F)F)ccc3c2=O)c1 [Compound 341]
0.101 to 0.5,0.01 to 0.1,O=C(Nc1cccc(Cn2ccc3cc(-c4c[nH]nc4C(F)F)ccc3c2=O)c1)c1cccnc1 [Compound 342]
0.101 to 0.5,0.01 to 0.1,O=C(Nc1cccc(Cn2ccc3cc(-c4c[nH]nc4C(F)F)ccc3c2=O)c1)C1COC1 [Compound 343]
0.101 to 0.5,0.01 to 0.1,O=C(Nc1cccc(Cn2ccc3cc(-c4c[nH]nc4C(F)F)ccc3c2=O)c1)c1ccccc1 [Compound 344]
0.011 to 0.1,0.01 to 0.1,CC(=O)Nc1cccc(Cn2ccc3cc(-c4c[nH]nc4Cl)ccc3c2=O)c1 [Compound 345]
